Assay results: US12492186B2, “Bicyclic heterocyclic compounds useful as IRAK4 inhibitors” (BRISTOL-MYERS SQUIBB COMPANY, priority 2019, dated 2025)

The molecules below were run against IRAK4 (Homo sapiens (Human), UniProt Q9NWZ3) (assay: IRAK4 Inhibition Assay). Details: ATP 500 μM; IRAK4 0.6 nM; 60 min room temperature; Caliper LABCHIP 3000.
Assay type: biochemical
Procedure: The assays were performed in U-bottom 384-well plates. The final assay volume was 30 μL prepared from 15 μL additions of enzyme and substrates (fluoresceinated peptide and ATP) and test compounds in assay buffer (20 mM HEPES pH 7.2, 10 mM MgCl2, 0.015% Brij 35 and 4 mM DTT). The reaction was initiated by the combination of IRAK4 with substrates and test compounds. The reaction mixture was incubated at room temperature for 60 min. and terminated by adding 45 μL of 35 mM EDTA to each sample. The reaction mixture was analyzed on the Caliper LABCHIP® 3000 (Caliper, Hopkinton, MA) by electrophoretic separation of the fluorescent substrate and phosphorylated product. Inhibition data were calculated by comparison to no enzyme control reactions for 100% inhibition and vehicle-only reactions for 0% inhibition. The final concentrations of reagents in the assays are ATP, 500 μM; FL-IPTSPITTTYFFFKKK peptide 1.5 μM; IRAK4, 0.6 nM; and DMSO, 1.6%.

IRAK4, sequence (Q9NWZ3 whole entry, species assumed): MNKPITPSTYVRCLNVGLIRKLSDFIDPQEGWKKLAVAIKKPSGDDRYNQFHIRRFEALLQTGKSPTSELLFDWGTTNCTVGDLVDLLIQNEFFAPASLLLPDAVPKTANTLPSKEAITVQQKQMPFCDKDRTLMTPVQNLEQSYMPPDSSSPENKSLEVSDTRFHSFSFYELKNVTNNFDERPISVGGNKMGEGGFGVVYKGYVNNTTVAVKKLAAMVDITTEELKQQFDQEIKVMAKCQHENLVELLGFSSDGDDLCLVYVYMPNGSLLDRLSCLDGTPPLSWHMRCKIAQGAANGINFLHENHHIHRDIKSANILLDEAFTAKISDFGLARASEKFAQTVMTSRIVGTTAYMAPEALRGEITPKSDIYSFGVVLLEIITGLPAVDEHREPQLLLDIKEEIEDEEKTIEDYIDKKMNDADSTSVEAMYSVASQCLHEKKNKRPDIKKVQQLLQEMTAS

SMILES	IC50
CCNc1c(C(=O)NCCC(C)(C)O)cnc2ccc(-c3cncs3)cc12 [Example 37, 4-(ethylamino)-N-(3-hydroxy-3-methylbutyl)-6-(thiazol-5-yl)quinoline-3-carboxamide]	110 nM
CC(C)Nc1c(-c2cn(CCS(C)(=O)=O)nn2)cnc2ccc(-c3cn[nH]c3)cc12 [Example 137, N-isopropyl-3-(1-(2-(methylsulfonyl)ethyl)-1H-1,2,3-triazol-4-yl)-6-(1H-pyrazol-4-yl)quinolin-4-amine]	38.8 nM
Cc1cc(CNC(=O)c2cnc3ccc(-c4cn[nH]c4)cc3c2NC(C)C)on1 [Example 16, 4-(isopropylamino)-N-((3-methylisoxazol-5-yl)methyl)-6-(1H-pyrazol-4-yl)quinoline-3-carboxamide]	40.2 nM
CC(C)Nc1c(C(=O)NCC2(CO)CC2)cnc2ccc(-c3cn[nH]c3)cc12 [Example 21, N-((1-(hydroxymethyl)cyclopropyl)methyl)-4-(isopropylamino)-6-(1H-pyrazol-4-yl)quinoline-3-carboxamide]	114 nM
CC(=O)N[C@H]1CC[C@H](NC(=O)c2cnc3ccc(-c4cncc(C#N)c4)nc3c2NC(C)C)CC1 [Example 154, N-((1r,4r)-4-acetamidocyclohexyl)-6-(5-cyanopyridin-3-yl)-4-(isopropylamino)-1,5-naphthyridine-3-carboxamide]	92.7 nM
CC(C)Nc1c(C(=O)NCCC2CC2)cnc2ccc(-c3cncc(C#N)c3)nc12 [Example 151, 6-(5-cyanopyridin-3-yl)-N-(2-cyclopropylethyl)-4-(isopropylamino)-1,5-naphthyridine-3-carboxamide]	1280 nM
CC(C)(O)CCNc1c(C(N)=O)cnc2ccc(-c3cn[nH]c3)cc12 [Example 99, 4-((3-hydroxy-3-methylbutyl)amino)-6-(1H-pyrazol-4-yl)quinoline-3-carboxamide]	264 nM
CC(C)Nc1c(C(=O)NC[C@@H](F)C(C)(C)O)cnc2ccc(-c3cncc(C#N)c3)cc12 [Example 4, (R)-6-(5-cyanopyridin-3-yl)-N-(2-fluoro-3-hydroxy-3-methylbutyl)-4-(isopropylamino)quinoline-3-carboxamide]	296 nM
CC(C)Nc1c(C(=O)N[C@H]2C[C@H](O)C2)cnc2ccc(-c3cn[nH]c3)cc12 [Example 60, N-((1r,3r)-3-hydroxycyclobutyl)-4-(isopropylamino)-6-(1H-pyrazol-4-yl)quinoline-3-carboxamide]	38 nM
O=C(NCC1CCS(=O)(=O)CC1)c1cnc2ccc(-c3cn[nH]c3)cc2c1NC1CC1 [Example 116, 4-(cyclopropylamino)-N-((1,1-dioxidotetrahydro-2H-thiopyran-4-yl)methyl)-6-(1H-pyrazol-4-yl)quinoline-3-carboxamide]	43.7 nM
CC(C)Nc1c(C(=O)NC[C@@H](F)C(C)(C)O)cnc2ccc(-c3cccnc3)cc12 [Example 3, (R)—N-(2-fluoro-3-hydroxy-3-methylbutyl)-4-(isopropylamino)-6-(pyridin-3-yl) quinoline-3-carboxamide]	46.2 nM
CC(C)Nc1c(C(=O)NCCC(C)(C)O)cnc2ccc(-c3ccc(=O)[nH]c3)cc12 [Example 74, N-(3-hydroxy-3-methylbutyl)-4-(isopropylamino)-6-(6-oxo-1,6-dihydropyridin-3-yl)quinoline-3-carboxamide]	124 nM
CC(C)Nc1c(C(=O)NCC2(CO)COC2)cnc2ccc(-c3cn[nH]c3)cc12 [Example 20, N-((3-(hydroxymethyl)oxetan-3-yl)methyl)-4-(isopropylamino)-6-(1H-pyrazol-4-yl)quinoline-3-carboxamide]	48.9 nM
Cc1cc(-c2ccc3ncc(C(=O)NCCC(C)(C)O)c(NC(C)C)c3c2)cnc1F [Example 71, 6-(6-fluoro-5-methylpyridin-3-yl)-N-(3-hydroxy-3-methylbutyl)-4-(isopropylamino)quinoline-3-carboxamide]	307 nM
CC(C)Nc1c(C(=O)NCCC2CC2)cnc2ccc(Nc3cncc(F)c3)nc12 [Example 147, N-(2-cyclopropylethyl)-6-((5-fluoropyridin-3-yl)amino)-4-(isopropylamino)-1,5-naphthyridine-3-carboxamide]	900 nM
Cc1cc2ncc(C(=O)NCCC(C)(C)O)c(NC(C)C)c2cc1-c1cncs1 [Example 61, N-(3-hydroxy-3-methylbutyl)-4-(isopropylamino)-7-methyl-6-(thiazol-5-yl)quinoline-3-carboxamide]	231 nM
CC(C)(O)CCNC(=O)c1cnc2ccc(-c3cncs3)cc2c1NC1COC1 [Example 41, N-(3-hydroxy-3-methylbutyl)-4-(oxetan-3-ylamino)-6-(thiazol-5-yl)quinoline-3-carboxamide]	210 nM
CCCc1nc(-c2cnc3ccc(-c4cn[nH]c4)cc3c2NC(C)C)n[nH]1 [Example 125, N-isopropyl-3-(5-propyl-1H-1,2,4-triazol-3-yl)-6-(1H-pyrazol-4-yl)quinolin-4-amine]	83.6 nM

The next molecules have a lower IC50 than those just listed; values first:

IC50	SMILES
24.2 nM	CC(C)Nc1c(C(=O)NCCC(C)(C)O)cnc2ccc(-c3ccncc3)nc12 [Example 145, N-(3-hydroxy-3-methylbutyl)-4-(isopropylamino)-6-(pyridin-4-yl)-1,5-naphthyridine-3-carboxamide]
19.7 nM	O=C(NCCC1CC1)c1cnc2ccc(-c3cn[nH]c3)cc2c1NC1CC(F)(F)C1 [Example 56, N-(2-cyclopropylethyl)-4-((3,3-difluorocyclobutyl)amino)-6-(1H-pyrazol-4-yl)quinoline-3-carboxamide]
33.5 nM	CC(C)(O)CCNC(=O)c1cnc2ccc(-c3cn[nH]c3)cc2c1NC1COC1 [Example 40, N-(3-hydroxy-3-methylbutyl)-4-(oxetan-3-ylamino)-6-(1H-pyrazol-4-yl)quinoline-3-carboxamide]
35.4 nM	CC(C)Nc1c(C(=O)NCCc2ncn[nH]2)cnc2ccc(-c3cn[nH]c3)cc12 [Example 104, N-(2-(1H-1,2,4-triazol-5-yl)ethyl)-4-(isopropylamino)-6-(1H-pyrazol-4-yl) quinoline-3-carboxamide]
28 nM	CC(O)CCNC(=O)c1cnc2ccc(-c3cn[nH]c3)cc2c1NCC(F)F (centres unmarked) [Example 64, 4-((2,2-difluoroethyl)amino)-N-(3-hydroxybutyl)-6-(1H-pyrazol-4-yl)quinoline-3-carboxamide]
32.6 nM	CC(O)CCNC(=O)c1cnc2ccc(-c3cn[nH]c3)cc2c1NC1CC(F)(F)C1 (centres unmarked) [Example 53, 4-((3,3-difluorocyclobutyl)amino)-N-(3-hydroxybutyl)-6-(1H-pyrazol-4-yl)quinoline-3-carboxamide]
24.2 nM	CC(O)CNc1c(C(=O)NC[C@@H](F)C(C)(C)O)cnc2ccc(-c3cn[nH]c3)cc12 (stereo partly drawn) [Example 30, N—((R)-2-fluoro-3-hydroxy-3-methylbutyl)-4-((2-hydroxypropyl)amino)-6-(1H-pyrazol-4-yl)quinoline-3-carboxamide]
28 nM	COCCNC(=O)c1cnc2ccc(-c3cn[nH]c3)cc2c1NC(C)C [Example 18, 4-(isopropylamino)-N-(2-methoxyethyl)-6-(1H-pyrazol-4-yl)quinoline-3-carboxamide]
35.1 nM	O=C(NCCC(F)(F)F)c1cnc2ccc(-c3cn[nH]c3)cc2c1NCC(F)F [Example 68, 4-((2,2-difluoroethyl)amino)-6-(1H-pyrazol-4-yl)-N-(3,3,3-trifluoropropyl)quinoline-3-carboxamide]
22.3 nM	CC(C)(O)CCNC(=O)c1cnc2ccc(-c3cn[nH]c3)cc2c1NCC(F)F [Example 62, 4-((2,2-difluoroethyl)amino)-N-(3-hydroxy-3-methylbutyl)-6-(1H-pyrazol-4-yl)quinoline-3-carboxamide]
22.6 nM	CC(=O)NC1CC(NC(=O)c2cnc3ccc(-c4cn[nH]c4)cc3c2NC2CC(F)(F)C2)C1 (centres unmarked) [Example 57, N-((1r,3r)-3-acetamidocyclobutyl)-4-((3,3-difluorocyclobutyl)amino)-6-(1H-pyrazol-4-yl)quinoline-3-carboxamide]
30.7 nM	CNC(=O)CCNC(=O)c1cnc2ccc(-c3cn[nH]c3)cc2c1NC(C)C [Example 48, 4-(isopropylamino)-N-(3-(methylamino)-3-oxopropyl)-6-(1H-pyrazol-4-yl)quinoline-3-carboxamide]
34.4 nM	CC(C)Nc1c(C(=O)NCC(=O)N2CCOCC2)cnc2ccc(-c3cn[nH]c3)cc12 [Example 90, 4-(isopropylamino)-N-(2-morpholino-2-oxoethyl)-6-(1H-pyrazol-4-yl)quinoline-3-carboxamide]
23.3 nM	CC(C)Nc1c(C(=O)NC2CCOCC2)cnc2ccc(-c3cn[nH]c3)cc12 [Example 9, 4-(isopropylamino)-6-(1H-pyrazol-4-yl)-N-(tetrahydro-2H-pyran-4-yl)quinoline-3-carboxamide]
20.1 nM	O=C(NCCC1CC1)c1cnc2ccc(-c3cn[nH]c3)cc2c1NCC(F)F [Example 75, N-(2-cyclopropylethyl)-4-((2,2-difluoroethyl)amino)-6-(1H-pyrazol-4-yl)quinoline-3-carboxamide]
4.5 nM	CC(C)Nc1c(C(=O)Nc2ccc(N3CCOCC3)nc2)cnc2ccc(-c3cn[nH]c3)cc12 [Example 100, 4-(isopropylamino)-N-(6-morpholinopyridin-3-yl)-6-(1H-pyrazol-4-yl)quinoline-3-carboxamide]
23 nM	CC(C)Nc1c(C(=O)NCCc2c[nH]cn2)cnc2ccc(-c3cn[nH]c3)cc12 [Example 102, N-(2-(1H-imidazol-4-yl)ethyl)-4-(isopropylamino)-6-(1H-pyrazol-4-yl)quinoline-3-carboxamide]
